Tests used:
[1] = target: T1, kinase domain protein of RC kinase (RCK) (Homo sapiens, UniProt Q56UN5); test: Kinase competition binding assay (Kd, qPCR readout), RC kinase; conditions: Kd class, read-out: RCK Activity Level
T1 construct: made in house; host or cells: E. coli BL21-derived host (T7 phage) or HEK-293
T1 sequence (Q56UN5 1061-1324 limits assumed): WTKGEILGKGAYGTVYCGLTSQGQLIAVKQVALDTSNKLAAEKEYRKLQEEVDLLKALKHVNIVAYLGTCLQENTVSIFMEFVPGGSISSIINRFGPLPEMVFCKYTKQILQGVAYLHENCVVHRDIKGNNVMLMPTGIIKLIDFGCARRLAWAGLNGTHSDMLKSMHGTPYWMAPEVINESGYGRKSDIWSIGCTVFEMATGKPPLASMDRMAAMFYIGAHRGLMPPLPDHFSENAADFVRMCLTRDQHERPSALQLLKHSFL
Method: (§1) For most assays, kinase-tagged T7 phage strains were prepared in an E. coli host derived from the BL21 strain. E. coli were grown to log-phase and infected with T7 phage and incubated with shaking at 32° C. until lysis. The lysates were centrifuged and filtered to remove cell debris. The remaining kinases were produced in HEK-293 cells and subsequently tagged with DNA for quantitative PCR (qPCR) detection.
(§2) Streptavidin-coated magnetic beads were treated with biotinylated small molecule ligands for 30 minutes at room temperature to generate affinity resins for kinase assays. The liganded beads were blocked with excess biotin and washed with blocking buffer (SeaBlock (Pierce), 1% BSA, 0.05% Tween 20, 1 mM DTT) to remove unbound ligand and to reduce nonspecific binding. Binding reactions were assembled by combining kinases, liganded affinity beads, and test compounds in 1× binding buffer (20% SeaBlock, 0.17×PBS, 0.05% Tween 20, 6 mM DTT). All reactions were performed in polystyrene 96-well plates in a final volume of 0.135 mL. The assay plates were incubated at room temperature with shaking for 1 hour and the affinity beads were washed with wash buffer (1×PBS, 0.05% Tween 20). The beads were then re-suspended in elution buffer (1×PBS, 0.05% Tween 20, 0.5 μM non-biotinylated affinity ligand) and incubated at room temperature with shaking for 30 minutes. The kinase concentration in the eluates was measured by qPCR.
(§3) An 11-point 3-fold serial dilution of each test compound was prepared in 100% DMSO at 100× final test concentration and subsequently diluted to 1× in the assay (final DMSO concentration=1%). Most Kd values were determined using a compound top concentration=30,000 nM. If the initial Kd determined was <0.5 nM, (the lowest concentration tested), the measurement was repeated with a serial dilution starting at a lower top concentration. A more detailed description of this assay may be found in Fabian, M. A. et al. Nat. Biotechnol. 2005, 23, 329-336, which is incorporated herein in its entirety.
(§4) The biological results of inhibition of the kinase domain protein of RC kinase (RCK) and JAK2 and JAK3 are summarized in Tables 2 and 3, wherein A represents a Kd of <50 nM; B represents 50 nM<Kd<100 nM; C represents 100 nM<Kd<1000 nM; and D represents a Kd>1000 nM.

[2] = target: T2, JAK2 (Homo sapiens, UniProt O60674); test: Kinase competition binding assay (Kd, qPCR readout), JAK2; conditions: for Kd: Kd class, JAK2, read-out: JAK2 Activity Level; for RCK:JAK2 selectivity ratio: ratio Kd (JAK2): Kd(RCK)
T2 construct: made in house; host or cells: E. coli BL21-derived host (T7 phage) or HEK-293
T2 sequence (O60674 840-1132 limits assumed): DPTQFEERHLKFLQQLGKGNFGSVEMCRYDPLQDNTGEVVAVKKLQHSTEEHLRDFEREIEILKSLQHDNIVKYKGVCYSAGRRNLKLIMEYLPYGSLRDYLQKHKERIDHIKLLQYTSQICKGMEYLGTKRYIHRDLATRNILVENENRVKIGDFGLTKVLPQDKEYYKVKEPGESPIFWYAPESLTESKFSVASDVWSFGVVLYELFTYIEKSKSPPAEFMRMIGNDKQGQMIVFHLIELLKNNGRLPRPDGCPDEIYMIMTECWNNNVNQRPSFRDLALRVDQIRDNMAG
Method: as §1, §2, §3, §4
Additionally, RCK:JAK2 selectivity, as measured by the ratio Kd (JAK2): Kd(RCK) is represented as follows: A represents Kd (JAK2): Kd (RCK)>100; B represents 10<Kd(JAK2): Kd (RCK)<100; C represents 1<Kd (JAK2): Kd (RCK)<10; and D represents Kd(JAK2): Kd (RCK)<1.

[3] = target: T3, JAK3 (Homo sapiens, UniProt P52333); test: Kinase competition binding assay (Kd, qPCR readout), JAK3; conditions: for Kd: Kd class, JAK3, read-out: JAK3 Activity Level; for RCK:JAK3 selectivity ratio: ratio Kd (JAK3): Kd (RCK)
T3 construct: made in house; host or cells: E. coli BL21-derived host (T7 phage) or HEK-293
T3 sequence (P52333 811-1124 limits assumed): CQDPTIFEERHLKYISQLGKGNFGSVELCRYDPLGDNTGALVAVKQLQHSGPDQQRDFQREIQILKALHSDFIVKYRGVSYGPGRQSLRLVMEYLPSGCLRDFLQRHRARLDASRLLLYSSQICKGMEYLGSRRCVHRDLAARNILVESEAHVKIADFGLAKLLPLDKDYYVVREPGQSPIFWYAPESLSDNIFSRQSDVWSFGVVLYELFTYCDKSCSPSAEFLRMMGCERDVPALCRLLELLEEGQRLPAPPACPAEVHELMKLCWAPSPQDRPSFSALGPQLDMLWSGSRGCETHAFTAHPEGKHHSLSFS
Method: as §1, §2, §3, §4
Similarly, RCK:JAK3 selectivity, as measured by the ratio Kd (JAK3): Kd (RCK) is represented as follows: A represents Kd (JAK3): Kd (RCK)>100; B represents 10<Kd (JAK3): Kd (RCK)<100; C represents 1<Kd (JAK3): Kd (RCK)<10; and D represents Kd (JAK3): Kd(RCK)<1.

| SMILES | Kd [1] | Kd [2] | Kd [3] | RCK:JAK2 selectivity ratio [2] | RCK:JAK3 selectivity ratio [3] |
| --- | --- | --- | --- | --- | --- |
| COc1ccc(Nc2n[nH]c(NCc3cc(C)c(O)c(C)c3)c2C(N)=O)cc1 [drawing 180, reference compound] | < 0.05 µM | < 0.05 µM | < 0.05 µM | – | – |
| NC(=O)c1c(Nc2ccc(N3CCN(C(=O)N4CCOCC4)CC3)cc2)n[nH]c1NCc1ccc(O)cc1 [reference compound] | < 0.05 µM | < 0.05 µM | < 0.05 µM | D (D represents Kd(JAK2): Kd (RCK)<1) | C (C represents 1<Kd (JAK3): Kd (RCK)<10) |
| CC1CCN(c2ccc(Nc3n[nH]c(NCc4ccc(O)cc4)c3C(N)=O)cc2)CC1 [reference compound] | < 0.05 µM | < 0.05 µM | 0.05 to 0.1 µM | D (D represents Kd(JAK2): Kd (RCK)<1) | C (C represents 1<Kd (JAK3): Kd (RCK)<10) |
| NC(=O)c1c(Nc2ccc(N3CCC(F)CC3)cc2)n[nH]c1NCc1ccc(O)cc1 [reference compound] | < 0.05 µM | < 0.05 µM | < 0.05 µM | D (D represents Kd(JAK2): Kd (RCK)<1) | D (D represents Kd (JAK3): Kd(RCK)<1) |
| Cc1cc(CNc2[nH]nc(Nc3ccc4[nH]ncc4c3)c2C(N)=O)cc(C)c1O [Compound 22, 3-((1H-indazol-5-yl)amino)-5-((4-hydroxy-3,5-dimethylbenzyl)amino)-1H-pyrazole-4-carboxamide] | 0.1 to 1 µM | > 1 µM | > 1 µM | C (C represents 1<Kd (JAK2): Kd (RCK)<10) | B (B represents 10<Kd (JAK3): Kd (RCK)<100) |
| Cc1cc(CNc2[nH]nc(Nc3ccc(-c4ccccn4)cc3)c2C(N)=O)cc(C)c1O [Compound 9, 5-((4-hydroxy-3,5-dimethylbenzyl)amino)-3-((4-(pyridin-2-yl)phenyl)amino)-1H-pyrazole-4-carboxamide] | 0.05 to 0.1 µM | > 1 µM | > 1 µM | B (B represents 10<Kd(JAK2): Kd (RCK)<100) | A (A represents Kd (JAK3): Kd (RCK)>100) |
| Cc1cc(CNc2[nH]nc(Nc3ccc(N4CCC(C(C)C)CC4)cc3)c2C(N)=O)cc(C)c1O [Compound 58, 5-((4-hydroxy-3,5-dimethylbenzyl)amino)-3-((4-(4-isopropylpiperidin-1-yl)phenyl)amino)-1H-pyrazole-4-carboxamide] | 0.1 to 1 µM | > 1 µM | > 1 µM | B (B represents 10<Kd(JAK2): Kd (RCK)<100) | B (B represents 10<Kd (JAK3): Kd (RCK)<100) |
| Cc1cc(Nc2n[nH]c(NCc3cc(C)c(O)c(C)c3)c2C(N)=O)cnc1N1CCN(C(C)C)CC1 [Compound 13, 5-((4-hydroxy-3,5-dimethylbenzyl)amino)-3-((6-(4-isopropylpiperazin-1-yl)-5-methylpyridin-3-yl)amino)-1H-pyrazole-4-carboxamide] | > 1 µM | > 1 µM | > 1 µM | B (B represents 10<Kd(JAK2): Kd (RCK)<100) | B (B represents 10<Kd (JAK3): Kd (RCK)<100) |
| NC(=O)c1c(Nc2ccc(N3CCOCC3=O)cc2)n[nH]c1NCc1ccc(O)cc1 [reference compound] | < 0.05 µM | < 0.05 µM | < 0.05 µM | D (D represents Kd(JAK2): Kd (RCK)<1) | C (C represents 1<Kd (JAK3): Kd (RCK)<10) |
| NC(=O)c1c(Nc2ccc(-c3ccccc3)cc2)n[nH]c1NCc1ccc(O)cc1 [reference compound] | 0.05 to 0.1 µM | < 0.05 µM | 0.05 to 0.1 µM | D (D represents Kd(JAK2): Kd (RCK)<1) | C (C represents 1<Kd (JAK3): Kd (RCK)<10) |
| COc1cccc(C(=O)Nc2ccc(Nc3n[nH]c(NCc4ccc(O)cc4)c3C(N)=O)cc2)c1 [reference compound] | < 0.05 µM | < 0.05 µM | < 0.05 µM | C (C represents 1<Kd (JAK2): Kd (RCK)<10) | B (B represents 10<Kd (JAK3): Kd (RCK)<100) |
| Cc1cc(CNc2[nH]nc(Nc3ccc(N4C[C@@H](C)O[C@@H](C)C4)cc3)c2C(N)=O)cc(C)c1O [Compound 4, 3-((4-(2,6-dimethylmorpholino)phenyl)amino)-5-((4-hydroxy-3,5-dimethylbenzyl)amino)-1H-pyrazole-4-carboxamide] | 0.1 to 1 µM | > 1 µM | > 1 µM | B (B represents 10<Kd(JAK2): Kd (RCK)<100) | B (B represents 10<Kd (JAK3): Kd (RCK)<100) |
| Cc1cc(Nc2n[nH]c(NCc3ccc(O)cc3)c2C(N)=O)cnc1N1CCN(C(C)C)CC1 [reference compound] | < 0.05 µM | < 0.05 µM | < 0.05 µM | D (D represents Kd(JAK2): Kd (RCK)<1) | C (C represents 1<Kd (JAK3): Kd (RCK)<10) |
| Cc1cc(CNc2[nH]nc(Nc3ccc(N4CCOCC4)cc3)c2C(N)=O)cc(C)c1O [Compound 3, 5-((4-hydroxy-3,5-dimethylbenzyl)amino)-3-((4-morpholinophenyl)amino)-1H-pyrazole-4-carboxamide] | < 0.05 µM | 0.1 to 1 µM | > 1 µM | B (B represents 10<Kd(JAK2): Kd (RCK)<100) | A (A represents Kd (JAK3): Kd (RCK)>100) |
| Cc1cc(Nc2n[nH]c(NCc3cc(C)c(O)c(C)c3)c2C(N)=O)ccc1N1CCN(C)CC1 [Compound 29, 5-((4-hydroxy-3,5-dimethylbenzyl)amino)-3-((3-methyl-4-(4-methylpiperazin-1-yl)phenyl)amino)-1H-pyrazole-4-carboxamide] | < 0.05 µM | 0.1 to 1 µM | > 1 µM | B (B represents 10<Kd(JAK2): Kd (RCK)<100) | B (B represents 10<Kd (JAK3): Kd (RCK)<100) |
| COc1ccccc1C(=O)Nc1ccc(Nc2n[nH]c(NCc3ccc(O)cc3)c2C(N)=O)cc1 [reference compound] | < 0.05 µM | < 0.05 µM | < 0.05 µM | B (B represents 10<Kd(JAK2): Kd (RCK)<100) | B (B represents 10<Kd (JAK3): Kd (RCK)<100) |
| Cc1cc(CNc2[nH]nc(Nc3ccc(N4CCOCC4)nc3)c2C(N)=O)cc(C)c1O [Compound 7, 5-((4-hydroxy-3,5-dimethylbenzyl)amino)-3-((6-morpholinopyridin-3-yl)amino)-1H-pyrazole-4-carboxamide] | 0.05 to 0.1 µM | 0.1 to 1 µM | > 1 µM | C (C represents 1<Kd (JAK2): Kd (RCK)<10) | B (B represents 10<Kd (JAK3): Kd (RCK)<100) |
| NC(=O)c1c(Nc2ccc(NC(=O)c3ccc(C(F)(F)F)cc3)cc2)n[nH]c1NCc1ccc(O)cc1 [reference compound] | 0.05 to 0.1 µM | 0.1 to 1 µM | 0.1 to 1 µM | C (C represents 1<Kd (JAK2): Kd (RCK)<10) | C (C represents 1<Kd (JAK3): Kd (RCK)<10) |
| NC(=O)c1c(Nc2ccc(N3CCSCC3)cc2)n[nH]c1NCc1ccc(O)cc1 [reference compound] | < 0.05 µM | < 0.05 µM | < 0.05 µM | D (D represents Kd(JAK2): Kd (RCK)<1) | C (C represents 1<Kd (JAK3): Kd (RCK)<10) |
| Cc1cc(Nc2n[nH]c(NCc3ccc(O)cc3)c2C(N)=O)ccc1N1CCOCC1 | < 0.05 µM | – | – | – | – |
